Source: US20230255975A1, “METHODS FOR TREATING CANCER WITH COMBINATION THERAPIES” (Celgene Corporation, priority 2020, published 2023)
One block for each compound: values may come before it.

Tests used:
Assay type in all cases: cell-based
phospho Ser10-histone H3 = phospho Ser10-histone H3 (G2-M marker) flow cytometry; details: vehicle 16.5
Procedure: (§1) Flow cytometry: Annexin-V Alexa Fluor 488-conjugated antibody (Thermo Scientific, Waltham, Mass., USA) and To-Pro-3 (Thermo Scientific, Waltham, Mass., USA) were used according to the manufacturer's protocol and processed using Flow Jo software for at least three independent experiments. For cell cycle analysis, cells were stained with Propidium Iodide (PI) staining kit (Abcam, Cambridge, Mass., USA) and analysis was performed on Flow Jo V10 software. Staining of mitotic marker pHH3-Ser^10 was also performed by pHH3-Ser^10 and PI dual staining.
(§2) The changes in phospho Ser10-histone H3 which is a specific marker for G2-M phase using flow cytometry were measured. […] Nocodazole synchronizes cells in G2-M phase of cell cycle. At time points 30 minutes, 2 hours and 6 hours post rescue from overnight Nocodazole treatment, PLK1 levels were higher compared to vehicle condition (FIG. 3). Then, due to rescue from cell cycle synchronization post Nocodazole treatment, PLK1 levels normalized. In response to Compound 5 treatment, while Ikaros degradation began to happen after 30 minutes of treatments, downregulation of PLK1 and CDC25C levels was evident at 48 hours post treatment. In response to Nocodazole and Compound 5 combination treatment, the decrease in PLK1 levels was accelerated. Changes in cleaved caspase 3 inversely correlated with PLK1 levels, with an increase in cleaved caspase 3 at 48 and 72 hours post Compound 5 treatment with a decrease in PLK1 levels. Cell cycle studies matched with these time points. […] In case of Nocodazole and Compound 5 combination treatment, an accelerated decrease in G2-M cells and a higher increase in sub-G1 cells was observed.

K12PE cell line = experiment: Proliferation assay
Procedure: (§3) Proliferation and viability assays: Cell growth curves were determined by monitoring the viability of cells with Trypan blue exclusion on a Vi-Cell-XR (Becton Dickinson, Franklin Lakes, N.J., USA). Proliferation assays were performed in triplicate at least three times (n=3) using (3H)-thymidine incorporation. All data were plotted and analyzed using GraphPad Prism 7 (GraphPad Software, La Jolla, Calif., USA) software, represented as the mean with an error determined as ±s.d.
as §3, with “assay.” for “assays:”, “Cell lines” for “Proliferation assays”, “plated” for “performed”, “in 96-well round-bottom plates with the indicated drug concentrations or knockdown cells. […]” for “at least three times (n=3) using (3H)-thymidine incorporation.”

K12PE-PR cell line = experiment: Proliferation assay
Procedure: as §3
as §3, with “assay.” for “assays:”, “Cell lines” for “Proliferation assays”, “plated” for “performed”, “in 96-well round-bottom plates with the indicated drug concentrations or knockdown cells. […]” for “at least three times (n=3) using (3H)-thymidine incorporation.”

[1] = tested on: AMO1-PR (pomalidomide resistant) cell line; experiment: Proliferation assay
Procedure: as §3
as §3, with “assay.” for “assays:”, “Cell lines” for “Proliferation assays”, “plated” for “performed”, “in 96-well round-bottom plates with the indicated drug concentrations or knockdown cells. […]” for “at least three times (n=3) using (3H)-thymidine incorporation.”

AMO1 cell line = experiment: Proliferation assay
Procedure: as §3
as §3, with “assay.” for “assays:”, “Cell lines” for “Proliferation assays”, “plated” for “performed”, “in 96-well round-bottom plates with the indicated drug concentrations or knockdown cells. […]” for “at least three times (n=3) using (3H)-thymidine incorporation.”

[2] = tested on: PLK1 signaling in MM1.S cells; experiment: Immunoblot of PLK1 signaling; details: FIG. 2C
Procedure: Immunoblotting: Immunoblot analysis was performed using WES kits, (Protein Simple, San Jose, Calif., USA) at least two times each (n≥2), where the best representative is shown.
The effects of pomalidomide in isogenic sensitive (EJM) and resistant (EJM-PR) and MM1.S cell lines was analyzed. […] To determine the role of PLK1 in pomalidomide response, EJM and EJM-PR cell lines were treated with pomalidomide and analyzed changes in PLK1 levels and downstream signaling. […] The changes in PLK1 transcript levels were further examined in response to pomalidomide treatment in MM1. […] Confocal microscopy was performed to study changes in PLK1 and CDC25C staining in MM1.S cells and a decrease in PLK1 levels and simultaneous decrease in CDC25C staining in response to pomalidomide and Compound 5 treatments was observed. […] Further analysis of the ChIP-seq datasets of Aiolos confirmed binding of Aiolos on TSS of PLK1 with overlapping transcriptional activation H3K27Ac signature extrapolated from publicly available ChIP-seq datasets in GM12878 cell line (Encode project). Since changes in PLK1 levels are due to decrease in PLK1 transcription in response to antiproliferative compounds, the effects of Aiolos and Ikaros knockdowns on PLK1 levels using MM1.S cells with inducible expression of Aiolos and Ikaros shRNAs were analyzed. Both Aiolos and Ikaros knock down lead to a decrease in PLK1 levels (FIG. 2F), indicating transcriptional regulation of PLK1 by substrates of Cereblon.

AMO1 cells = experiment: Apoptosis by Annexin V and Topro staining; details: AMO-1 cells
Procedure: as §1
The PLK1 inhibitor BI2536 and Compound 5 were tested for their activity as individual agents and in combination in AMO1 parental and AMO1-PR cell lines. […] Changes in apoptosis were analyzed using the single agent treatments and their combination using Annexin V and Topro staining. […] Changes in Ikaros and pro-survival signaling in these cell lines was analyzed in response to BI2536 and Compound 5 after 24 and 72 hours of treatment (FIG. 5K).

MM cell lines = experiment: Cell cycle analysis (PI staining, flow cytometry) in response to Compound 5; details: for sub-G1 population: vehicle 5.02, cell line not named; for G2-M population: vehicle 16.3; for G0-G1 population: vehicle 69.2
Procedure: as §1, §2

AMO1 control shRNA cells = experiment: Proliferation assay in control shRNA cells; details: Homo sapiens; control shRNA AMO1 cells; read-out: IC50, proliferation
Procedure: (§4) Proliferation and viability assay. Cell growth curves were determined by monitoring the viability of cells with Trypan blue exclusion on a Vi-Cell-XR (Becton Dickinson, Franklin Lakes, N.J., USA). Cell lines were plated in triplicate in 96-well round-bottom plates with the indicated drug concentrations or knockdown cells. Proliferation assays were performed in triplicate at least three times (n=3) using either the WST-1 tetrazolium salt (Roche Applied Science) reagent used according to the manufacturer's specifications or by (3H)-thymidine incorporation as previously described (Bjorklund et al., Blood Cancer Journal 5, e354, 2015). All data were plotted and analyzed using GraphPad Prism 7 (GraphPad Software, La Jolla, Calif., USA) software, represented as the mean with an error determined as ±s.d.
(§5) To further confirm the synergistic effect, shRNA knockdown was combined with either Compound 5 or Compound 6 treatment. Expression of control and NEK2 shRNA in AMO1 cell lines was induced, followed by exposure of the cells to increasing concentrations of Compound 5 and Compound 6. The results were measured through a proliferation assay.

[3] = tested on: AMO1 NEK2 shRNA (NEK2 knocked-down) cells; experiment: Proliferation assay in NEK2 knocked-down cells
Procedure: as §4, §5

[4] = tested on: BIRC5 (Survivin) in MM1.S cell line; experiment: BIRC5 levels in response to Compound 5; details: 48 and 72 hours, followed by onset of apoptosis
Procedure: BIRC5 levels decreased in response to Compound 5 treatment at 48 and 72 hours, followed by an onset of apoptosis in MM1.S cell line (FIG. 23B).

Mc-CAR cell line = experiment: Proliferation assay; details: McCAR; WT; p-ERK High; read-out: IC50 (μM) Trametinib
Procedure: as §3, §4

H929 cell line = experiment: Proliferation assay; details: Homo sapiens, NCI-H929, NRAS G13D, p-ERK Medium, read-out: IC50 (μM) Trametinib
Procedure: as §3, §4

KMS-20 cell line = experiment: Proliferation assay; details: KRAS G12S, p-ERK High, read-out: IC50 (μM) Trametinib
Procedure: as §3

U266 cell line = experiment: Proliferation assay; details: Homo sapiens, U-266, BRAF K601N, p-ERK High, read-out: IC50 (μM) Trametinib
Procedure: as §3

KARPAS-620 cell line = experiment: Proliferation assay; details: p-ERK High, read-out: IC50 (μM) Trametinib
Procedure: as §3

KMM-1 cell line = experiment: Proliferation assay; details: NRAS G13D, p-ERK High, read-out: IC50 (μM) Trametinib
Procedure: as §3

MOLP-8 cell line = experiment: Proliferation assay; details: Homo sapiens, KRAS K180del, NRAS p.Q61L, p-ERK High, read-out: IC50 (μM) Trametinib
Procedure: as §3

[5] = tested on: FOXM1 in AMO1-PR cell line; experiment: FOXM1 expression after BIRC5 inhibition; details: FIG. 26B
From the text: (§6) Inhibition of BIRC5 by YM155 also downregulates FOXM1 and pro-survival signaling.

[6] = tested on: FOXM1 in K12PE-PR cell line; experiment: FOXM1 expression after BIRC5 inhibition; details: FIG. 26B
From the text: as §6

Structure (SMILES): O=C1CC[C@H](N2Cc3c(OCc4ccc(CN5CCOCC5)cc4)cccc3C2=O)C(=O)N1 [Compound 5, (S)-3-(4-((4-(morpholinomethyl)benzyl)oxy)-1-oxoisoindolin-2-yl)piperidine-2,6-dione]
levels of phospho Ser10-histone H3 (phospho Ser10-histone H3; 10 nM): 9.3 | levels of phospho Ser10-histone H3 (phospho Ser10-histone H3; 30 nM): 6.37 | levels of phospho Ser10-histone H3 (phospho Ser10-histone H3; 100 nM): 4.53 | Synergy analysis (Calcusyn) of combination with JQ1 on proliferation (K12PE cell line; K12PE cells, in combination with JQ1): synergistic | Synergy of combination with JQ1 on proliferation (K12PE-PR cell line; Pom resistant K12PE-PR, in combination with JQ1): synergistically decreased proliferation | Synergy (Calcusyn) with NEK2 inhibitors (JH295 and rac-CCT 250863) on proliferation ([1]; NEK2 inhibitor 0.016-10 μM): strong synergy | Combination analysis (Calcusyn) with YM155 on proliferation ([1]; in combination with YM155): synergistic activity | Synergy with trametinib on proliferation ([1]; in combination with trametinib): strong synergy | Synergy (Calcusyn) with NEK2 inhibitors (JH295 and rac-CCT 250863) on proliferation (AMO1 cell line; AMO1, NEK2 inhibitor 0.016-10 μM): strong synergy | Combination analysis (Calcusyn) with YM155 on proliferation (AMO1 cell line; AMO1, in combination with YM155): synergistic activity | Synergy with trametinib on proliferation (AMO1 cell line; AMO1, in combination with trametinib): strong synergy | Dose giving decrease in PLK1 levels and downstream signaling relative to pomalidomide [2]: ten times lower dose | PLK1 signaling ([2]; MMS.1 cells, increasing concentrations): dose dependent decrease | late apoptosis (AMO1 cells; vehicle 2.24%): 3.07% | early apoptosis (AMO1 cells; vehicle 2.69%): 4.86% | sub-G1 population (MM cell lines; 10 nM): 4.98 | G2-M population (MM cell lines; 10 nM): 12.3 | G0-G1 population (MM cell lines; 10 nM): 75.8 | sub-G1 population (MM cell lines; 30 nM): 11.3 | G2-M population (MM cell lines; 30 nM): 6.94 | G0-G1 population (MM cell lines; 30 nM): 78.3 | sub-G1 population (MM cell lines; 100 nM): 13.9 | G2-M population (MM cell lines; 100 nM): 6.27 | G0-G1 population (MM cell lines; 100 nM): 75.1 | IC50 (AMO1 control shRNA cells): 105 nM | IC50 ([3]; Homo sapiens, NEK2 knocked-down AMO1 cells): 18.7 nM | Increase of activity by NEK2 knockdown in comparison to control shRNA cell line ([3]; IC50 control cells vs NEK2 knocked-down cells): 5 fold | BIRC5 levels [4]: decreased

IC50 (H929 cell line): 0.00328 µM | IC50 (U266 cell line): 0.000353 µM | IC50 (KARPAS-620 cell line): 0.07 nM
Structure (SMILES): CC(=O)Nc1cccc(-n2c(=O)n(C3CC3)c(=O)c3c(Nc4ccc(I)cc4F)n(C)c(=O)c(C)c32)c1 [Trametinib]
IC50 (Mc-CAR cell line): 0.0031 µM | IC50 (AMO1 cell line; Homo sapiens, Amo1, KRAS146T, p-ERK High, read-out: IC50 (μM) Trametinib): 0.0012 µM | IC50 (KMS-20 cell line): 0.00222 µM | IC50 (KMM-1 cell line): 0.00169 µM | IC50 (MOLP-8 cell line): 0.0117 µM

Structure (SMILES): COCCn1c2c([n+](Cc3cnccn3)c1C)C(=O)c1ccccc1C2=O.[Br-] [YM155, 1-(2-methoxyethyl)-2-methyl-4,9-dioxo-3-(pyrazin-2-ylmethyl)-4,9-dihydro-1H-naphtho[2,3-d]imidazol-3-ium bromide]
EC50 (K12PE cell line; K12PE, BIRC5 inhibitor): 1.47 nM | EC50 (K12PE-PR cell line; K12PE-PR, BIRC5 inhibitor): 1.07 nM | EC50 ([1]; BIRC5 inhibitor): 0.12 nM | EC50 (AMO1 cell line; Homo sapiens, AMO1, BIRC5 inhibitor): 1.09 nM | FOXM1 expression [5]: downregulated FOXM1 expression in a dose dependent manner | FOXM1 expression [6]: downregulated FOXM1 expression in a dose dependent manner
